Measured values published in ChEMBL document CHEMBL1142791, “Design, synthesis, and evaluation of 2-phenoxy-indan-1-one derivatives as acetylcholinesterase inhibitors” (Bioorg Med Chem Lett, 2005).

What was measured:
[1] = target: T1, Acetylcholinesterase (Rattus norvegicus, UniProt P37136)
T1 sequence (P37136 whole entry): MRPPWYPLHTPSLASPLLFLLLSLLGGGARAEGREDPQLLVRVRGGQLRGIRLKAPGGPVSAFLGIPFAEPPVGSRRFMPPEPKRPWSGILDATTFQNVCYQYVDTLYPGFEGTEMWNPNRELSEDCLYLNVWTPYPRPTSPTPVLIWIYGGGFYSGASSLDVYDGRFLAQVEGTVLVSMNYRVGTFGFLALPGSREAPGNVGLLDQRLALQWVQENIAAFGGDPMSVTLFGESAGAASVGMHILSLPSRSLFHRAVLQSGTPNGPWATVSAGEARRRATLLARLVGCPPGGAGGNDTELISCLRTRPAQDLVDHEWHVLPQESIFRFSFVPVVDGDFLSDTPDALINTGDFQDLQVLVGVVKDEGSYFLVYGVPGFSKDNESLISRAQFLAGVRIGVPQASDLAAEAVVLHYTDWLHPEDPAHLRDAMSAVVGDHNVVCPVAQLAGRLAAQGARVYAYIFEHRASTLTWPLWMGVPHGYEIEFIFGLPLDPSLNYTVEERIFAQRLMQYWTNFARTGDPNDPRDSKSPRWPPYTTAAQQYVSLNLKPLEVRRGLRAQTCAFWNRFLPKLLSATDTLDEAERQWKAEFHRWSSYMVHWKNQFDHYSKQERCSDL
Description: In vitro inhibitory concentration against rat cortex acetylcholinesterase

[2] = target: Butyrylcholinesterase (Rattus norvegicus, UniProt Q9JKC1); assay: In vitro inhibitory concentration against butyrylcholinesterase was determined using rat serum homogenate
Butyrylcholinesterase, sequence (Q9JKC1 whole entry): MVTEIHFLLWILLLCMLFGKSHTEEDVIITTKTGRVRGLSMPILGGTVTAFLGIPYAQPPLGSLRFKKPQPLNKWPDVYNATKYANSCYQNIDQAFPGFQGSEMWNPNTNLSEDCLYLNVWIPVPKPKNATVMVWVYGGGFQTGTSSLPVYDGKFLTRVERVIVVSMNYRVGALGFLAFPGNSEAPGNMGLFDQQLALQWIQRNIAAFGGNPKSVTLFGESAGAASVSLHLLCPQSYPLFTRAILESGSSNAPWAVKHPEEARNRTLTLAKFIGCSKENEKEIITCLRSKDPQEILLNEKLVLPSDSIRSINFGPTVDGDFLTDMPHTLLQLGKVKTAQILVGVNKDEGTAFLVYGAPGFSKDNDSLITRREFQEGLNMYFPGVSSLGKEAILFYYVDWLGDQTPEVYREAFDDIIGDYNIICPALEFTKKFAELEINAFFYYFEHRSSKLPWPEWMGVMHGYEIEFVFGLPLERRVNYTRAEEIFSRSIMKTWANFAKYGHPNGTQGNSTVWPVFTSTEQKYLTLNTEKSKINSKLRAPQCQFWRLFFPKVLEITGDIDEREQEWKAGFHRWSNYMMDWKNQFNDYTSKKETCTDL

SMILES | IC50 [1] [µM] | IC50 [2] [µM]
COc1cc2c(cc1OC)C(=O)C(Oc1ccc(C(C)N3CCOCC3)cc1)C2 (stereo not drawn) | 3.14 | 346
CCN(CC)C(C)c1cccc(OC2Cc3cc(OC)c(OC)cc3C2=O)c1 (stereo not drawn) | 1.36 | 199
COc1cc2c(cc1OC)C(=O)C(Oc1ccc(C(C)N3CCCC3)cc1)C2 (stereo not drawn) | 0.14 | 130
COc1cc2c(cc1OC)C(=O)C(Oc1cccc(C(C)N3CCN(C)CC3)c1)C2 (stereo not drawn) | 17.6 | 252
COc1cc2c(cc1OC)C(=O)C(Oc1ccc(C(C)N3CCN(C)CC3)cc1)C2 (stereo not drawn) | 2.98 | 393
COc1cc2c(cc1OC)C(=O)C(Oc1cccc(CN(C)C)c1)C2 (stereo not drawn) | – | 207
COc1cc2c(cc1OC)C(=O)C(Oc1ccc(CN3CCCCC3)cc1)C2 (stereo not drawn) | 0.15 | 262
COc1cc2c(cc1OC)C(=O)C(Oc1cccc(CN3CCN(C)CC3)c1)C2 (stereo not drawn) | 6.41 | 209
COc1cc2c(cc1OC)C(=O)C(Oc1ccc(CN3CCN(C)CC3)cc1)C2 (stereo not drawn) | 1.42 | 347
CCN(CC)C(C)c1ccc(OC2Cc3cc(OC)c(OC)cc3C2=O)cc1 (stereo not drawn) | 0.22 | 234
CCN(CC)Cc1ccc(OC2Cc3cc(OC)c(OC)cc3C2=O)cc1 (stereo not drawn) | 0.1 | 251
COc1cc2c(cc1OC)C(=O)C(Oc1ccc(C(C)N(C)C)cc1)C2 (stereo not drawn) | – | 1370
COc1cc2c(cc1OC)C(=O)C(Oc1cccc(C(C)N3CCCC3)c1)C2 (stereo not drawn) | 1.96 | 212
COc1cc2c(cc1OC)C(=O)C(Oc1ccc(CN3CCOCC3)cc1)C2 (stereo not drawn) | 1.3 | 384
COc1cc2c(cc1OC)C(=O)C(Oc1cccc(C(C)N3CCOCC3)c1)C2 (stereo not drawn) | – | 247
COc1cc2c(cc1OC)C(=O)C(Oc1ccc(CN3CCCC3)cc1)C2 (stereo not drawn) | 0.05 | 84.3
COc1cc2c(cc1OC)C(=O)C(Oc1cccc(CN3CCOCC3)c1)C2 (stereo not drawn) | – | 219
COc1cc2c(cc1OC)C(=O)C(Oc1cccc(C(C)N(C)C)c1)C2 (stereo not drawn) | 0.82 | 288
COc1cc2c(cc1OC)C(=O)C(Oc1cccc(CN3CCCCC3)c1)C2 (stereo not drawn) | 3.18 | 55.5
COc1cc2c(cc1OC)C(=O)C(Oc1cccc(C(C)N3CCCCC3)c1)C2 (stereo not drawn) | 3.58 | 158
CCN(CC)Cc1cccc(OC2Cc3cc(OC)c(OC)cc3C2=O)c1 (stereo not drawn) | 2.28 | 190
COc1cc2c(cc1OC)C(=O)C(Oc1cccc(CN3CCCC3)c1)C2 (stereo not drawn) | – | 39.5
COc1cc2c(cc1OC)C(=O)C(Oc1ccc(CN(C)C)cc1)C2 (stereo not drawn) | 0.21 | 1980
COc1cc2c(cc1OC)C(=O)C(Oc1ccc(C(C)N3CCCCC3)cc1)C2 (stereo not drawn) | 0.13 | 176
